Source: paper PMC8878717, “The Oxime Ethers with Heterocyclic, Alicyclic and Aromatic Moiety as Potential Anti-Cancer Agents” (Molecules, 2022)
“And” between values parts separate entries of the source, which are not always exact repeats. Equal values may be shown once. Read-outs that look alike come from different tables or passages of the source.

How the values were obtained:
HeLa cells = assay: MTT cytotoxicity test on HeLa cells; assay type: cell-based, human; settings: for cytotoxicity / cell viability of HeLa cells at low concentration: 1–10 μg/mL (1 and 10 μg/mL)
Procedure: Cytotoxic properties of all compounds were determined by 3-(4,5-dimethylthiazol-2-yl)-2,5-diphenyltetrazolium bromide (MTT) test reflecting cell viability. Cytotoxicity screening of all 27 compounds—2-acetylbenzofuran oxime (6) and its oxime ethers (1–5), as well as: 2-acetylthiophene (7–17), cyclohexanone (18–20), acetophenone (21–23), thiazole (24–25), benzothiazole (26–27) oxime ethers—was performed in vitro on human cervical adenocarcinoma (HeLa) cells as the representatives of cancerous cells.
(§1) 2-Acetylbenzofuran, 2-acetylbenzothiophene, 2-acetylthiophene, 2-acetylthiazole, cyclohexanone and acetophenone derivatives were used for in vitro cytotoxicity assays with cervical adenocarcinoma (HeLa), human dermal fibroblasts (HDF), lung epithelial carcinoma (A549), and intestinal epithelial carcinoma (Caco-2) cell lines. A549, Caco-2, and HeLa cells were obtained from Sigma-Aldrich (Germany), and HDF from Biokom (Poland). All cell lines were cultured according to the manufacturer’s protocol under sterile conditions in the presence of 4.9% CO2 at 37 °C. A549 cells were grown in F-12 medium containing 10% fetal bovine serum (FBS) and 1% penicillin/streptomycin. HDF cells were grown in DMEM (low glucose, with 2 mM glutamine) medium containing 10% fetal bovine serum (FBS) and 1% penicillin/streptomycin. Caco-2 cells were grown in EMEM medium containing 10% fetal bovine serum (FBS), 1% non-essential amino acids (NEAA) and 1% penicillin/streptomycin. HeLa cells were grown in DMEM (low glucose, with 2 mM glutamine) medium containing 10% fetal bovine serum (FBS) and 1% gentamycin. After thawing, cells were cultured until they reached sub-confluent state. The cells were then detached using 0.25% trypsin solution and seeded into 24-well or 96-well plates (3 × 10^3 cells per well) for further experiments. After 24 h growth, the tested compounds were added to the cell cultures in concentrations of 1, 10, 50, 100 and 250 μg mL^−1, respectively, and incubated for the next 24 h or 72 h. The MTT test, based on the ability to reduce 3-(4,5-dimethylthiazol 2-yl)-2,5-diphenyltetrazolium bromide (MTT) by mitochondrial dehydrogenases, was performed in triplicate to assess cell metabolic activity and viability. The plates were then read spectrophotometrically at a wavelength of 570 nm. The dose-dependence curves were charted directly on x-/y-axes, with the drug dosages on the x-axis and the cell viability (percentage of viable cells) on the y-axis.

[1] = system: human dermal fibroblasts (HDF); assay: MTT cytotoxicity test on HDF cells; assay type: cell-based; settings: Homo sapiens, Fibroblast, HDF
Procedure: (§2) Therefore, compounds showing the highest cytotoxicity (8, 9, 18, 22, 24–27) were further tested on normal human dermal fibroblasts (HDF), A549, Caco-2, and HeLa cells to compare their activity after 24 h and 72 h culture (Figure 5 and Figure 6).
as §1

A549 cells = assay: MTT cytotoxicity test on A549 cells; assay type: cell-based; settings: Homo sapiens
Procedure: as §2, §1

Caco-2 cells = assay: MTT cytotoxicity test on Caco-2 cells; assay type: cell-based, human; settings: Homo sapiens
Procedure: as §2, §1

[2] = MTT cytotoxicity test on HDF cells; assay type: cell-based, human; settings: human, human dermal fibroblasts (HDF); 100 μg/mL, 24 h exposure
Procedure: as §2, §1

[3] = Homo sapiens, HeLa, 24 h, HeLa, 24 h culture, MTT, read-out: EC50 for HeLa Cells
[4] = Homo sapiens, HeLa, 72 h, HeLa, 72 h, MTT, read-out: EC50 Value HeLa 72 h
[5] = 24 h, MTT, read-out: EC50 Value HDF 24 h
[6] = 72 h, MTT, read-out: EC50 Value HDF 72 h
[7] = A549, 24 h, MTT, read-out: EC50 Value A549 24 h
[8] = A549, 72 h, MTT, read-out: EC50 Value A549 72 h
[9] = Caco-2, 24 h, MTT, read-out: EC50 Value Caco-2 24 h
[10] = Caco-2, 72 h, MTT, read-out: EC50 Value Caco-2 72 h

CC(=NOCCN1CCOCC1)c1cccs1 [Compound 12]
cytotoxicity / cell viability of HeLa cells at low concentration (HeLa cells; MTT): increased cell viability
EC50 (HeLa cells; [3]): > 250 µg/mL and > 980 µM

CN(C)CCON=C1CCCCC1 [Compound 19]
EC50 (HeLa cells; [3]): > 250 µg/mL and > 1.36 mM

CC(=NOCc1ccc(Cl)cc1Cl)c1cc2ccccc2s1 [Compound 26, (E)-1-(benzothiophene-2-yl)ethanone O-2,4-dichlorobenzyl oxime]
EC50 (HeLa cells; [3]): 121 µg/mL and 350 µM
EC50 (HeLa cells; [4]): 8.18 µg/mL and 20 µM
EC50 [1, 5]: 135 µg/mL and 380 µM
EC50 [1, 6]: 25.7 µg/mL and 70 µM
EC50 (A549 cells; [7]): 199 µg/mL and 570 µM
EC50 (A549 cells; [8]): 177 µg/mL and 510 µM
EC50 (Caco-2 cells; [9]): > 250 µg/mL and > 710 µM
EC50 (Caco-2 cells; [10]): 50.1 µg/mL and 140 µM
melting point: 113 to 117 °C

CC(=NOCc1c(F)cccc1F)c1cc2ccccc2o1 [Compound 5]
EC50 (HeLa cells; [3]): > 250 µg/mL and > 830 µM

CC(=NO)c1cc2ccccc2o1 [Compound 6, 2-acetylbenzofuran oxime]
EC50 (HeLa cells; [3]): > 250 µg/mL and > 1.43 mM

COc1ccc([N+](=O)[O-])c(CON=C(C)c2cccs2)c1 [Compound 10]
EC50 (HeLa cells; [3]): > 250 µg/mL and > 820 µM

CC(=NOCc1ccc(Br)cc1)c1cccs1 [Compound 8]
EC50 (HeLa cells; [3]): 610 µM
EC50 (HeLa cells; [4]): 40 µg/mL and 130 µM
EC50 [1, 5]: 127 µg/mL and 410 µM
EC50 [1, 6]: 118 µg/mL and 380 µM
EC50 (A549 cells; [7]): 194 µg/mL and 620 µM
EC50 (A549 cells; [8]): 228 µg/mL and 740 µM
EC50 (Caco-2 cells; [9]): 230 µg/mL and 740 µM
EC50 (Caco-2 cells; [10]): 118 µg/mL and 380 µM

CC(=NOCC(=O)O)c1cccs1 [Compound 17]
cytotoxicity / cell viability of HeLa cells at low concentration (HeLa cells; MTT): increased cell viability
EC50 (HeLa cells; [3]): > 250 µg/mL and > 1.25 mM

CC(=NOCCN(C)C)c1cccs1 [Compound 11]
EC50 (HeLa cells; [3]): > 250 µg/mL and > 1.18 mM

C/C(=N\OCCCN)c1cccs1 [Compound 15, (E)-1-(thiophen-2-yl)ethanone O-3-aminopropyl oxime]
EC50 (HeLa cells; [3]): > 250 µg/mL and > 1.1 mM

C/C(=N\OCc1ccc(Br)cc1)c1nccs1 [Compound 25, (E)-1-(thiazol-2-yl)ethanone O-4-bromobenzyl oxime]
EC50 (HeLa cells; [3]): 130 µg/mL and 420 µM
EC50 (HeLa cells; [4]): 47.3 µg/mL and 150 µM
EC50 [1, 5]: 37.9 µg/mL and 120 µM
EC50 [1, 6]: 25.7 µg/mL and 80 µM
EC50 (A549 cells; [7]): > 250 µg/mL and > 800 µM
EC50 (A549 cells; [8]): 79.9 µg/mL and 260 µM
EC50 (Caco-2 cells; [9]): 70.8 µg/mL and 230 µM
EC50 (Caco-2 cells; [10]): 50.5 µg/mL and 160 µM
melting point: 67 to 70 °C

CCN(CC)CCO/N=C(\C)c1cccs1 [Compound 14, (E)-1-(thiophen-2-yl)ethanone O-2-(diethylamino)ethyl oxime]
EC50 (HeLa cells; [3]): > 250 µg/mL and > 1.04 mM

CC(=NOCc1ccc(C(F)(F)F)cc1)c1cc2ccccc2o1 [Compound 2]
EC50 (HeLa cells; [3]): > 250 µg/mL and > 750 µM

O=C(O)CON=C1CCCCC1 [Compound 18, 2-(cyclohexylideneaminoxy)acetic acid]
viability of HeLa cells (of control) (HeLa cells; 100–250 μg/mL, MTT): below 20%
EC50 (HeLa cells; [3]): 32.3 µg/mL and 190 µM
EC50 (HeLa cells; [4]): 4.9 µg/mL and 30 µM
viability at 100 µg/mL (HeLa cells; Homo sapiens, HeLa, 100 μg/mL, 24 h exposure): ~20%
viability at 24 h, 100 μg/mL [2]: ~20%
EC50 [1, 5]: 43.7 µg/mL and 260 µM
EC50 [1, 6]: 14.7 µg/mL and 90 µM
EC50 ([1]; 72 h culture, read-out: EC50 HDF): 90 to 100 µM
EC50 (A549 cells; [7]): 47.8 µg/mL and 280 µM
EC50 (A549 cells; [8]): 17.9 µg/mL and 100 µM
EC50 (A549 cells; A549, 72 h, read-out: EC50 A549): 90 to 100 µM
viability at 100 µg/mL (A549 cells; A549, 100 μg/mL, 24 h exposure): ~20%
EC50 (Caco-2 cells; [9]): 44.4 µg/mL and 260 µM
EC50 (Caco-2 cells; [10]): 17.5 µg/mL and 100 µM
EC50 (Caco-2 cells; Caco-2, 72 h, read-out: EC50 Caco-2): 90 to 100 µM
viability at 100 µg/mL (Caco-2 cells; Caco-2, 100 μg/mL, 24 h exposure): ~20%

CC(=NOCCCN(C)C)c1cccs1 [Compound 16]
cytotoxicity / cell viability of HeLa cells at low concentration (HeLa cells; MTT): increased cell viability
EC50 (HeLa cells; [3]): > 250 µg/mL and > 1.1 mM

CC(=NOCCN(C)C)c1ccccc1 [Compound 23]
EC50 (HeLa cells; [3]): 233 µg/mL and 1.13 mM

CC(=NOCc1ccc([N+](=O)[O-])cc1)c1cccs1 [Compound 9]
EC50 (HeLa cells; [3]): 460 µM
EC50 (HeLa cells; [4]): 6.9 µg/mL and 20 µM
EC50 [1, 5]: 172 µg/mL and 620 µM
EC50 [1, 6]: 44.7 µg/mL and 160 µM
EC50 (A549 cells; [7]): 107 µg/mL and 390 µM
EC50 (A549 cells; [8]): 131 µg/mL and 470 µM
EC50 (Caco-2 cells; [9]): 78 µg/mL and 280 µM
EC50 (Caco-2 cells; [10]): 105 µg/mL and 380 µM

CC(=NOCc1ccc(Cl)cc1Cl)c1cccs1 [Compound 7]
cytotoxicity / cell viability of HeLa cells at low concentration (HeLa cells; MTT): increased cell viability
EC50 (HeLa cells; [3]): > 250 µg/mL and > 830 µM

CC(=NOCc1ccc([N+](=O)[O-])cc1)c1cc2ccccc2o1 [Compound 4]
EC50 (HeLa cells; [3]): > 250 µg/mL and > 810 µM

CC(=NOCc1ccc(Br)cc1)c1cc2ccccc2o1 [Compound 3]
EC50 (HeLa cells; [3]): > 250 µg/mL and > 730 µM

COc1ccc(CO/N=C(\C)c2nccs2)cc1 [Compound 24, (E)-1-(thiazol-2-yl)ethanone O-4-methoxybenzyl oxime]
EC50 (HeLa cells; [3]): 110 µg/mL and 420 µM
EC50 (HeLa cells; [4]): 8.7 µg/mL and 30 µM
EC50 [1, 5]: 35.3 µg/mL and 130 µM
EC50 [1, 6]: 30.6 µg/mL and 120 µM
EC50 (A549 cells; [7]): > 250 µg/mL and > 950 µM
EC50 (A549 cells; [8]): 35.7 µg/mL and 140 µM
EC50 (Caco-2 cells; [9]): > 250 µg/mL and > 950 µM
EC50 (Caco-2 cells; [10]): 69.1 µg/mL and 260 µM

C1CCC(=NOCCN2CCOCC2)CC1 [Compound 20]
EC50 (HeLa cells; [3]): > 250 µg/mL and > 1.1 mM

CC(=NOCc1ccc(Cl)cc1Cl)c1cc2ccccc2o1 [Compound 1]
EC50 (HeLa cells; [3]): > 250 µg/mL and > 750 µM

C/C(=N\OCCN)c1cccs1 [Compound 13, (E)-1-(thiophen-2-yl)ethanone O-2-aminoethyl oxime]
EC50 (HeLa cells; [3]): > 250 µg/mL and > 1.36 mM
